The results in this text go back to patent publication US10426773B2, “Systems pharmacology for treating ocular disorders” (Case Western Reserve Univeristy, priority 2011, dated 2019).

“Also recorded” adds a separate entry of the source. Where a name gives a salt, the structure may show the parent alone.

Assay [1] addresses T1, Dopamine D4 receptor (D4R) (Homo sapiens, UniProt P21917).
T1 construct: host or cells: HEK293T/17
T1 sequence (P21917 1-419): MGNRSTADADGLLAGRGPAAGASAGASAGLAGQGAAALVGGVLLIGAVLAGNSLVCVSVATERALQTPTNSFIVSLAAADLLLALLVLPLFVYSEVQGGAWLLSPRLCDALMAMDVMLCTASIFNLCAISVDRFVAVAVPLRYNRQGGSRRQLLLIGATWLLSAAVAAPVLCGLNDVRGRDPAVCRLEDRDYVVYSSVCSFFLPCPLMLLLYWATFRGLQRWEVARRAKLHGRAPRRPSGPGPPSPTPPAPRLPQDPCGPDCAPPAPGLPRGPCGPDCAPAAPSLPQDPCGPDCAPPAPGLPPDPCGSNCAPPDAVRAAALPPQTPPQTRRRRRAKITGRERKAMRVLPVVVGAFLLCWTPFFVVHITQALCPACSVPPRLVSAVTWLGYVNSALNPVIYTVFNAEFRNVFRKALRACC
Put plainly: BRET assay for G protein activation in live cells, D4R-Go. It is filed as cell-based. Particulars: for agonistic activity on D4R (BRET signal): HEK293T/17 cells, BRM 25 μM, MTP 100 μM, DOX 50 μM, TAM 100 μM. The source says:
(§1) FIGS. 35(A-C) illustrate characterizing the activity of BRM, MTP, DOX, and TAM on dopamine and adrenaline receptors (A) Schematic representation of the BRET assay used to evaluate actions of drugs on selected GPCRs. […] The free Venus-Gβγ then interacts with the Gβγ-effector mimetic masGRK3ct-Nluc to produce the BRET signal. GDP, guanosine diphosphate; GRK, G protein-coupled receptor kinase; Nluc, nanoluciferase. (B) Left: Representative BRET signal traces recorded upon activation of D4R with indicated drugs in cells expressing Gαo and Venus-Gβγ, illustrating the agonism assay. Right: Representative traces of D2R responses to 1 μM dopamine in the absence (control) or presence of indicated drugs, illustrating antagonism assay. Note that, in the antagonism assay shown, the black trace overlaps with the red trace and therefore is not visible. (C) Top: Quantification of agonistic activity of ligands on D2R, D4R, D1R, and ADRA1A. D2R-GO, D4R-GO, D1R-Gs, and ADRA1A-Gq signaling were reconstituted in HEK293T/17 cells by transient transfection separately. Maximum amplitudes induced by dopamine (DA; 100 μM), noradrenaline (NA; 100 μM), BRM (25 μM), MTP (100 μM), DOX (50 μM), and TAM (100 μM) were plotted as bar graphs. […] The activity is plotted as percent inhibition. Data are means±SD. Results are representative of two independent experiments each performed with 12 replicates.
Dopamine D1, dopamine D4, and α1A-adrenergic receptors were purchased from cDNA Resource Center (Bloomsburg University, Bloomsburg, Pa.). Plasmid encoding the Flag-tagged, long isoform of the D2 dopamine receptor was a gift from A. Kovoor (University of Rhode Island). pCMV5 plasmids encoding GαoA were gifts from H. Itoh (Nara Institute of Science and Technology, Japan). Plasmids encoding Venus 156-239-Gβ1 and Venus 1-155-Gγ2 were gifts from N. Lambert (Georgia Regents University). Plasmids encoding RGS9-2, Gβ5S, R7BP, and masGRK3ct-Nluc were previously described.
(§2) BRET experiments were performed as previously reported with slight modifications. […] BRET measurements were performed using a microplate reader (POLARstar Omega, BMG Labtech) equipped with two emission photomultiplier tubes. […] The BRET signal is determined by calculating the ratio of the light emitted by Gβ1γ2-Venus (535 nm) over the light emitted by masGRK3ct-Nluc (475 nm). The average baseline value recorded before agonist stimulation was subtracted from BRET signal values, and the resulting difference (ABRET ratio) was obtained.
(§3) We used a real-time kinetic assay in which G protein activation by GPCRs is quantified by monitoring changes in the bioluminescence resonance energy transfer (BRET) signal between Venus-tagged Gβγ and its luciferase-tagged reporter in living cells (FIG. 35A). […]

Assay [2] relates to BALB/c mice. The assay is described as follows: Light-induced retinal degeneration in BALB/c mice, retinal morphology (OCT, histology, IHC). It is filed as in vivo, mouse. Conditions: for retinal morphology / ONL (OCT, histology): ip pretreatment 30 min before 10,000 lux, 7 days after light.
In assay [3] the test system is Abca4−/−Rdh8−/− mice. Put plainly: Bright light-induced retinal degeneration in Abca4−/−Rdh8−/− mice, OCT imaging of retinal structure. It is filed as in vivo, mouse. Conditions: for Percent of mice with: subeffective doses BRM 0.1, MTP 1, TAM 0.05, DOX 1 mg/kg bw, OCT 7 days; for retinal / photoreceptor morphology by OCT imaging: pretreatment before light 10,000 lux 30 min, OCT 7 days after light exposure; for retinal protection at full individual dose: BRM 1, MTP 10, TAM 2.5 mg/kg bw individually; for light-exposed mice with complete retinal protection: lower doses BRM 0.1, MTP 1, TAM 0.05 mg/kg bw, alone or all three combined.

For assay [4], the target named is T2, D2 dopamine receptor (D2R) (Homo sapiens, UniProt P14416).
T2 construct: Flag; host or cells: HEK293T/17
The assay is described as follows: BRET assay for G protein activation in live cells, D2R-Go. It is filed as cell-based. Conditions: for antagonistic activity on D2R (inhibition of BRET signal): preincubation with ligand, then 1 μM dopamine.
Text: as §1, with “Results are representative of two independent experiments each performed with 12 replicates.” left out
as §2, §3
(In general: BRET reads energy transfer from a luciferase to a nearby fluorophore.)

Where [5] appears, read: Table 14 (complete protection, ONL ≥50 μm).
The mark [6] stands for this setting: Table 14 (no protection, ONL ≤20 μm).

T2 sequence (P14416 whole entry): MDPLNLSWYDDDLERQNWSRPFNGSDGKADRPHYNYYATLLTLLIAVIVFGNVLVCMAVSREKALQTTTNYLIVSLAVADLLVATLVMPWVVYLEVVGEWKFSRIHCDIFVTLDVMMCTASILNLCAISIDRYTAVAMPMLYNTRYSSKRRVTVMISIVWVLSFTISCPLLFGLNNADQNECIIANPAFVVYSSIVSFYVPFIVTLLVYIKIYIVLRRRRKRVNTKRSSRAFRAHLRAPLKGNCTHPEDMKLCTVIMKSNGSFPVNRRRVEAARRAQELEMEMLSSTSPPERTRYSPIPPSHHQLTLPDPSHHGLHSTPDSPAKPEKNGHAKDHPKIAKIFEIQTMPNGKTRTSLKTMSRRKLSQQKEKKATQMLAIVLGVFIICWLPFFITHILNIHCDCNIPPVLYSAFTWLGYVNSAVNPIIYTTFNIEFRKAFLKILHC

`COc1cc2nc(N3CCN(C(=O)C4COc5ccccc5O4)CC3)nc(N)c2cc1OC.CS(=O)(=O)O` (stereo not drawn) [Doxazosin]: in assay [1], the “agonistic activity on D4R (BRET signal)” value is “partial agonistic effect”. In addition, the “retinal morphology / ONL (OCT, histology)” value in assay [2] is recorded as “retinal morphology of drug-treated mice was maintained”. For the same compound, the entries for the “Percent of mice with” value in assay [3] (setting [5]) and in assay [3] (setting [6]) were 0% of mice and 100% of mice, respectively. Besides, the “retinal / photoreceptor morphology by OCT imaging” value (shortened to “retinal / photoreceptor morphology”) in assay [3] (listed as DOX) is listed as “substantial protection on photoreceptor morphology; also recorded: dose-dependent fashion”. In addition, the “half maximal effective (protective) dose” value in assay [3] (protection from bright light-induced degeneration, dose-response, FIG. 25A/B) came out at 0.4 mg/kg.
With `COCCc1ccc(OCC(O)CNC(C)C)cc1` (stereo not drawn) [MTP, metoprolol tartrate], in assay [4] (HEK293T/17 cells, BRM 25 μM, MTP 100 μM, DOX 50 μM, TAM 100 μM), the “agonistic activity on D2R (BRET signal)” value is “no agonistic or antagonistic effects”. For the same compound, the “antagonistic activity on D2R (inhibition of BRET signal)” value in assay [4] was “no agonistic or antagonistic effects”. Further, the “agonistic activity on D4R (BRET signal)” value in assay [1] is recorded as “no agonistic or antagonistic effects”. Besides, in assay [1] (preincubation with ligand, then 1 μM dopamine), the “antagonistic activity on D4R (inhibition of BRET signal)” value is “no agonistic or antagonistic effects”. In addition, in assay [2] (BRM 2.5 mg/kg bw, MTP 10 mg/kg bw), the “PNA staining of cone photoreceptors” value is “nearly normal pattern of PNA staining”. In addition, the “retinal morphology / ONL (OCT, histology)” value in assay [2] is “preserved the ONL”. For the same compound, in assay [3], the “retinal protection at full individual dose” value is “Complete retinal protection”, the “light-exposed mice with complete retinal protection” value worked out at 25% and the “retinal / photoreceptor morphology” value is “dose-dependent retinal protection”. Further, in assay [3] (setting [5]), the “Percent of mice with” value was 25% of mice. Further, in assay [3] (setting [6]), the “Percent of mice with” value was 41.7% of mice.
As to `CCOc1ccccc1OCCN[C@H](C)Cc1ccc(OC)c(S(N)(=O)=O)c1.Cl` [Tamsulosin], the “antagonistic activity on D2R (inhibition of BRET signal)” value in assay [4] is recorded as “antagonistic activity”. In addition, the “agonistic activity on D4R (BRET signal)” value in assay [1] is recorded as “partial agonistic effect”. Also, in assay [3], the “retinal protection at full individual dose” value is recorded as “Complete retinal protection” and the “light-exposed mice with complete retinal protection” value was 17%. Also, the “Percent of mice with” value in assay [3] (setting [5]) was 16.7% of mice. For the same compound, the “Percent of mice with” value in assay [3] (setting [6]) is 58.3% of mice. For the same compound, the “retinal / photoreceptor morphology” value in assay [3] (listed as TAM) is listed as “substantial protection on photoreceptor morphology; also recorded: dose-dependent retinal protection”.
